Experiment [1] concerns recombinant CSN complex. The experiment can be described thus: Peptide array screen of C-CSNAP peptides with recombinant CSN (rCSN^WT).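 On all read-outs here: densitometric signal of CSN bound to each synthesized peptide spot, with an antibody-only array lacking CSN run to exclude non-specific binding, higher values meaning stronger binding.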 In kind it is binding. Particulars: for Average fold change, intensities as fold of C-CSNAP (A1): rCSN^WT on INTAVIS Celluspots array, anti-CSN3 and HRP secondary antibody, average of six replicates (three independent experiments in duplicates); for Average fold change: peptide array with rCSN, average of 3 experiments, left and right (n = 6), fold of C-CSNAP (A1).

In experiment [2] the test system is CSN^ΔCSNAP complex. The experiment in a line: Peptide array screen of C-CSNAP peptides with rCSN^ΔCSNAP.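 Further: Array-printed peptides incubated with 0.5 µM CSN^ΔCSNAP, bound complex detected by anti-CSN3 antibody plus HRP-linked secondary, spot intensity expressed relative to the parent reference peptide spot.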 In kind it is binding. Particulars: average of 5 experiments.
Setting [3] is: peptide array, rCSN^ΔCSNAP, left and right spots.
Where [4] appears, read: peptide array with rCSN^ΔCSNAP, left and right (n = 10), fold of C-CSNAP (A1).

For the sequence “EFFNEFEDLFDDDDIQ [Position D10, C-CSNAP, Asp to Glu substitution D42,46E]”, the “Average fold change, intensities as fold of C-CSNAP (A1)” value (“Average fold change, intensities” below) in experiment [1] is on record as 0.8862 fold of C-CSNAP (A1). Moreover, the Average fold change in experiment [2] (setting [3]) is 1.0622 fold of C-CSNAP (A1).
Consider “EFFNEFEDLFDDDEIQ [E 8, C-CSNAP, Asp to Glu substitution D42,46,55E]”, for which the “Average fold change, intensities” value in experiment [1] is reported as 0.7616 fold of C-CSNAP (A1). The Average fold change in experiment [2] (setting [3]) is on record as 0.9227 fold of C-CSNAP (A1).
Turning to “EFFNEFEDLFDDEDIQ [E 7, C-CSNAP, Asp to Glu substitution D42,46,54E]”, the “Average fold change, intensities” value in experiment [1] was 0.6639 fold of C-CSNAP (A1). For the same sequence, the Average fold change in experiment [2] (setting [3]) was 1.1480 fold of C-CSNAP (A1).
Take “EFFNEFEDLFDEDDIQ [E 6, C-CSNAP, Asp to Glu substitution D42,46,53E]”: the “Average fold change, intensities” value in experiment [1] is reported as 0.7001 fold of C-CSNAP (A1). In addition, the Average fold change in experiment [2] (setting [3]) is 0.9657 fold of C-CSNAP (A1).
On to “EFFNEFEDLFEDDDIQ [E 5, C-CSNAP, Asp to Glu substitution D42,46,52E]”, for which the “Average fold change, intensities” value in experiment [1] is reported as 0.8794 fold of C-CSNAP (A1). Also, the Average fold change in experiment [2] (setting [3]) is 1.0465 fold of C-CSNAP (A1).
For the sequence “EFFNEFEDLFEDDDIQ [Position D12, C-CSNAP, Asp to Glu substitution D42,52E]”, the “Average fold change, intensities” value in experiment [1] is reported as 0.7025 fold of C-CSNAP (A1). Further, the Average fold change in experiment [2] (setting [3]) is listed as 1.0147 fold of C-CSNAP (A1).
On to “EFFNEFEELFDDDDIQ [E 4, C-CSNAP, Asp to Glu substitution D42,46,49E]”, for which the “Average fold change, intensities” value in experiment [1] is given as 0.8374 fold of C-CSNAP (A1). In experiment [2] (setting [3]), the Average fold change is 0.8106 fold of C-CSNAP (A1).
Turning to EFFNEFEELFDDDEIQ [D42,46,49,55E], the Average fold change was 0.5938 fold in experiment [1] and 0.8257 fold of C-CSNAP (A1) in experiment [2] (setting [3]).
The corresponding values for EFFNEFEELFDDEDIQ [D42,46,49,54E] are 0.5426 fold and 1.0465 fold of C-CSNAP (A1).
With EFFNEFEELFDEDDIQ [D42,46,49,53E], the values for the Average fold change in experiment [1] and in experiment [2] (setting [3]) were 0.3807 fold and 1.2266 fold of C-CSNAP (A1), respectively.
With EFFNEFEELFDEEEIQ [D42,46,49,53,54,55E], the Average fold change in experiment [1] is given as 0.3621 fold; in experiment [2] (setting [3]) it was 1.0322 fold of C-CSNAP (A1).
Take EFFNEFEELFEDDDIQ [D42,46,49,52E]: the Average fold change in experiment [1] is recorded as 0.5168 fold; in experiment [2] (setting [3]), 1.0318 fold of C-CSNAP (A1).
Taken in the same sequence, the figures for EFFNEFEELFEDDEIQ [D42,46,49,52,55E] were 0.5210 fold and 0.9893 fold of C-CSNAP (A1).
With EFFNEFEELFEDEDIQ [D42,46,49,52,54E], the figures for the Average fold change in experiment [1] and in experiment [2] (setting [3]) were 0.5967 fold and 0.9563 fold of C-CSNAP (A1), respectively.
In the case of EFFNEFEELFEDEEIQ [D42,46,49,52,54,55E], the Average fold change was 0.2605 fold in experiment [1] and 1.1157 fold of C-CSNAP (A1) in experiment [2] (setting [3]).
Taken in the same sequence, the figures for EFFNEFEELFEEDDIQ [D42,46,49,52,53E] were 0.6954 fold and 1.2332 fold of C-CSNAP (A1).
EFFNEFEELFEEEDIQ [D42,46,49,52,53,55E]: the Average fold change in experiment [1] is listed as 0.4075 fold; in experiment [2] (setting [3]) it was 1.2784 fold of C-CSNAP (A1).
Taken in the same sequence, the figures for EFFNEFEELFEEEDIQ [D42,46,49,52,53, 54E] were 0.5691 fold and 0.9285 fold of C-CSNAP (A1).
As for “EFFNEFEELFEEEEIQ [D42,46,49,52,53,54,56E]”, the Average fold change is reported as 0.5923 fold in experiment [1] and 1.1160 fold of C-CSNAP (A1) in experiment [2] (setting [3]).
With “EGAGPYVDLDEAGGSTGLLMDLAANEKAVHADFFNDFEDLFDDDDIQ [B 8, CSNAP residues 11-57]”, the “Average fold change, intensities” value in experiment [1] was 0.8775 fold of C-CSNAP (A1). For the same sequence, in experiment [2] (setting [4]), the Average fold change amounted to 0.9764 fold.
Turning to “EMFPEGAGPYVDLDEAGGSTGLLMDLAANEKAVHADFFNDFEDLFDDDDIQ [Position B12, CSNAP residues 7-57]”, the “Average fold change, intensities” value in experiment [1] is 0.8904 fold of C-CSNAP (A1). The Average fold change in experiment [2] (setting [4]) worked out at 1.1057 fold.
Regarding “GAGPYVDLDEAGGSTGLLMDLAANEKAVHADFFNDFEDLFDDDDIQ [B 7, CSNAP residues 12-57]”, the “Average fold change, intensities” value in experiment [1] is on record as 1.1696 fold of C-CSNAP (A1). Also, in experiment [2] (setting [4]), the Average fold change is 1.0720 fold.
Taken in the same sequence, the figures for “GGSTGLLMDLAANEKAVHADFFNDFEDLFDDDDIQ [Position A20, CSNAP residues 23-57]” were 0.8793 fold of C-CSNAP (A1) and 1.1737 fold.
Turning to “GLLMDLAANEKAVHADFFNDFEDLFDDDDIQ [Position A16, CSNAP residues 27-57]”, in experiment [1], the “Average fold change, intensities” value is given as 1.0167 fold of C-CSNAP (A1). Further, the Average fold change in experiment [2] (setting [4]) was 1.2168 fold.
Take “GPYVDLDEAGGSTGLLMDLAANEKAVHADFFNDFEDLFDDDDIQ [B 5, CSNAP residues 14-57]”: the “Average fold change, intensities” value in experiment [1] is listed as 1.1075 fold of C-CSNAP (A1). For the same sequence, in experiment [2] (setting [4]), the Average fold change is 0.9816 fold.
Turning to “HADFFNDFEDLFDDDDIQ [A 3, CSNAP residues 40-57]”, the “Average fold change, intensities” value in experiment [1] is given as 1.0326 fold of C-CSNAP (A1). Moreover, the Average fold change in experiment [2] (setting [4]) is 0.8215 fold.
Turning to “KAVHADFFNDFEDLFDDDDIQ [A 6, CSNAP residues 37-57]”, the “Average fold change, intensities” value in experiment [1] is 1.1025 fold of C-CSNAP (A1). Also, the Average fold change in experiment [2] (setting [4]) came to 0.9179 fold.
In the case of “KPAVDEMFPEGAGPYVDLDEAGGSTGLLMDLAANEKAVHADFFNDFEDLFDDDDIQ [Position B17, CSNAP residues 2-57]”, the “Average fold change, intensities” value in experiment [1] was 1.0902 fold of C-CSNAP (A1). Also, the Average fold change in experiment [2] (setting [4]) stood at 1.3898 fold.
In the case of “LAANEKAVHADFFNDFEDLFDDDDIQ [Position A11, CSNAP residues 32-57]”, the “Average fold change, intensities” value in experiment [1] was 1.1357 fold of C-CSNAP (A1). Further, the Average fold change in experiment [2] (setting [4]) came out at 1.1791 fold.
Taken in the same sequence, the figures for “LLMDLAANEKAVHADFFNDFEDLFDDDDIQ [Position A15, CSNAP residues 28-57]” were 0.9771 fold of C-CSNAP (A1) and 1.2034 fold.
The corresponding values for “LMDLAANEKAVHADFFNDFEDLFDDDDIQ [Position A14, CSNAP residues 29-57]” are 0.9262 fold of C-CSNAP (A1) and 1.0726 fold.
In the case of “STGLLMDLAANEKAVHADFFNDFEDLFDDDDIQ [Position A18, CSNAP residues 25-57]”, the “Average fold change, intensities” value in experiment [1] was 0.9600 fold of C-CSNAP (A1). Also, in experiment [2] (setting [4]), the Average fold change was found to be 1.3562 fold.
Taken in the same sequence, the figures for “VDLDEAGGSTGLLMDLAANEKAVHADFFNDFEDLFDDDDIQ [B 2, CSNAP residues 17-57]” were 0.7909 fold of C-CSNAP (A1) and 0.8221 fold.
Turning to “VHADFFNDFEDLFDDDDIQ [A 4, CSNAP residues 39-57]”, the “Average fold change, intensities” value in experiment [1] was 1.1190 fold of C-CSNAP (A1). Further, the Average fold change in experiment [2] (setting [4]) is on record as 0.9552 fold.

Values taken from paper PMC10355216, “The C-terminal tail of CSNAP attenuates the CSN complex” (Life Science Alliance, 2023).
